Reference: patent publication US10675286B2, “Heterocyclic compounds and uses thereof” (Infinity Pharmaceuticals, Inc., priority 2014, dated 2020)
“Also recorded” adds a separate entry of the source. Read-outs that look alike come from different tables or passages of the source.

What was measured:
[1] = Tumor growth, Compound BB alone and with 5-FU (FIG. 35); assay type: in vivo
LLC tumor brei [2] = assay: LLC tumor brei model, Compound BB with or without cyclophosphamide; assay type: in vivo, mouse
Experimental: In this experiment, treatment began when tumors reached approx. 150 mm^3—around day 12. Caliper and xenogen images were monitored. Treatment groups n=13-15/group. […] Samples for FACs analysis were collected on day 23 post implant. Using FACS, cells were assayed for the level of CD11b and Gr-1.

[3] = system: bone marrow cells differentiating into MDSCs; assay: Myeloid Derived Suppressor Cell differentiation assay (VEGF, ARG1); assay type: cell-based
Experimental: A similar experiment was performed on bone marrow cells differentiating into MDSCs.

LLC tumor brei [4] = assay: LLC tumor brei model, immune cells in tumors; assay type: in vivo
[5] = system: spleen T cell proliferation; assay: Ex vivo T-cell proliferation assay with tumor-derived cells; assay type: cell-based; settings: compared to tumor derived cells from vehicle treated mice
Farage cell line = assay: Combination isobologram in Farage cell line; assay type: cell-based; settings: combination of Compound AA and Compound BB
[6] = system: CXCL12-induced pAKT in T-cells; assay: CXCL12-induced pAKT in T-cells of CLL patient PBMCs; assay type: cell-based, human
Source text: There was a tight correlation between the EC50s observed in the CXCL12-induced pAKT assay and the T-cell migration assay.

[7] = system: CXCL12 induced p-AKT in bone marrow derived macrophages; assay: CXCL12-induced p-AKT induction assay in differentiated, polarized macrophages; assay type: cell-based, mouse; settings: Mus musculus, Macrophage
Source text: Long bones from young C57B6 mice were harvested and bone marrow was extruded by gentle lavage of the bone marrow cavities with a 28 gauge needle. Red blood cells were removed using red blood cell lysis buffer (Sigma). Bone marrow cells were differentiated to macrophages using MCSF for 6 days (RPMI and 20% FCS) with one media change (with removal of all non-adherent cells) at day 3. Macrophages were polarized into M0 (MCSF), M1 (MCSF, IFNγ, and LPS for 1 day), or M2 (MCSF, IL4 for 2 days).
Polarized macrophages were lifted with Acutase, and plated at 0.5M cells per well (0.5 ml) in a deep well (2 ml) non adherant plate in polarization media for 1 hour. […] CXCL12 was added, and the cells were mixed on a plate shaker for 2 minutes. 1 ml of 37 degree FACS Lyse/fix buffer (BD bioscience) was added and the plate was mixed for 1 minute. The plates were spun and decanted and frozen at −80° C. Phospho AKT staining with anti Phospho AKT 473 PERCP labeled (Cell Signaling Technologies) was performed and measured by flow cytometry. Total cell MFI was used to calculate the effect of tested compound on CXCL12 induction of phospho AKT.

CT26 colon carcinoma = assay: CT26 allograft colon cancer model; assay type: in vivo, mouse
Source text: CT26 is an N-nitroso-N-methylurethane-(NNMU) induced, undifferentiated mouse colon carcinoma cell line. It is cloned to generate the cell line designated CT26.WT (ATCC CRL-2638). The syngeneic CT26 colon cancer model is established by subcutaneous implantation of CT26 cells into BALB/c mice. This model has been extensively used to study the anti-tumor activity of immunotherapies (Yu et al., Clinical Cancer Research, 2010; Daraiswamy et al., Cancer Research, 2013). […] In some embodiments, a compound provided herein can be administered alone or in combination with an anti-PD-L1.
CT26 is an N-nitroso-N-methylurethane-(NNMU) induced, undifferentiated colon carcinoma cell line. It was cloned to generate the cell line designated CT26.WT (ATCC catalog number CRL-2638). 5-6 week old female, Balb/c mice (Jackson Labs) were implanted subcutaneously with 5×10^5 CT26 cells in 200 μl PBS. CT26 cells were cultured in DMEM supplemented with 10% FBS. Dosing commenced when tumors reached an average volume of […]. Administration of the compounds was performed according to the following Table:
Isotype control (Ultra-LEAF purified rat IgG2b, k isotype control, clone RTK4530, Lot B180477, Biolegend, Cat #70640)
Anti-PD-L1 antibody (Ultra-LEAF purified anti-mouse CD274-B7H1, PD-L1-, clone 10F9G2, Lot B178331, Biolegend, Cat #124318) […]
Body weights and tumor volumes were measured three times per week.

Cytochrome P450 isoforms = assay: Cytochrome P450 inhibition (ADME characteristics, Table 25); assay type: in vitro ADME; settings: main Cytochrome P450 isoforms
Source text: These properties indicate the compound's suitability for in vivo administration.

GL261-Luc = GL261-Luc murine glioblastoma subcutaneous model; assay type: in vivo, mouse; settings: GL-261 syngeneic glioma, 15 mg/kg QD, PO
Source text: In some cases, the GL261 glioblastoma model is used. This is a syngeneic glioblastoma multiform model run subcutaneously or orthotopically, and is described in more detail in the examples provided herein. In some embodiments, the model has previously been treated with radiation therapy but there is a recurrence of the cancer. Compounds provided herein can be administered to models with a recurrence or relapse of cancer after prior treatment.

4T1 breast cancer = assay: Subcutaneous 4T1 breast cancer model; assay type: in vivo
MC38 tumor cells = assay: MC38 colon cancer model; assay type: in vivo, mouse
Experimental: In this model, a syngeneic colon cancer cell line is run subcutaneously. The experimental setup was as follows.
The cell injection volume was 0.05 ml per mouse. When tumors reached an average size of 80-100 mm^3, a pair match was made and treatment began. The tumor was measured by caliper biweekly.
The dosing volume was 5 mL/kg.
For all animals, blood was collected by terminal cardiac puncture under isoflurane anesthesia. The blood was processed for plasma. In addition, tumor samples were collected.
At study end, tumors were isolated, fixed in 10% neutral buffered formalin and embedded in paraffin for histologic analysis. […] T-cells within the tumor sections were identified utilizing a CD3-specific antibody via automated immunohistochemistry equipment (Ventana). Once stained, slides were digitalized via Aperio slide scanning equipment. Next, stained tumor sections were quantified via Definians software to assess the percentage of CD3 positive cells within each tumor.

[8] = Oral pharmacokinetics of Compound BB in rat; assay type: in vivo; settings: 7.5 mg/kg oral
Source text: Compound BB's oral exposure is high in rat, dog and monkey. Good oral bioavailability and low clearance in rodent and non-rodent animal species results in high oral exposure.

TMD8 cell line = assay: Combination isobologram in TMD8 cell line; assay type: cell-based; settings: combination of Compound AA and Compound BB
M2 macrophage markers = assay: M2 macrophage marker expression with or without PDL-1 antibody (FIG. 42); assay type: in vivo
[9] = system: collagen induced arthritis; assay: Rat collagen induced arthritis (CIA) model
CT26 colon cancer = CT26 colon cancer model; assay type: in vivo, mouse; settings: CT26 subcutaneous tumors

With `C[C@H](NC(=O)c1c(N)nn2cccnc12)c1cc2cccc(C#Cc3cnn(C)c3)c2c(=O)n1-c1ccccc1` [Compound BB] the tumor growth ([1]; Compound BB alone) was “reduction in tumor growth”, the tumor growth ([1]; co-administration of Compound BB and 5-FU) was “further reduction” and the “Tumor growth (FIG. 48)” value (LLC tumor brei [2]; Compound BB 15 mg/kg QD PO, cyclophosphamide 50 mg/kg EOD IP) was “reduced tumor growth by about the same amount”. For the same compound, the “CD206 population in tumor (FACS, FIG. 52)” value (LLC tumor brei [2]; Compound BB alone or with cyclophosphamide) was “decrease in the CD206 population”, the “VEGF and ARG1 in MDSC differentiation assay (FIG. 24)” value [3] was “suppressed both VEGF (FIG. 24A) and ARG1 (FIG. 24B)” and the “CD206+ M2 polarized suppressive macrophages” value (LLC tumor brei [4]) was “reduces”. For the same compound, the TAMs in tumor (LLC tumor brei [4]) was “decreased”, the “inhibition of spleen T cell proliferation by cells isolated from tumors of treated mice” value [5] was “less inhibitory” and the “effect of the combination (isobologram)” value (Farage cell line) was “synergistic effect”. The “Inhibition of CXCL12-induced pAKT in T-cells (FIG. 9)” value [6] was “more strongly than a PI3K-δ inhibitor”, the IC50 ([7]; read-out: IC50, CXCL12 induced p-AKT, differentiated and M1 polarized macrophage) was ~14 nM and the IC50 ([7]; read-out: IC50, CXCL12 induced p-AKT, differentiated and M2 polarized macrophage) was ~8.4 nM. The “MDSC expansion after cyclophosphamide treatment (FIG. 28)” value (CT26 colon carcinoma; CT26 model, 5-9 day time frame) was “decreased”, the “Monocytic iMCs (flow cytometry, FIG. 38B)” value (CT26 colon carcinoma; CT26 subcutaneous tumors) was “monocytic iMCs were decreased” and the CYP inhibition (Cytochrome P450 isoforms) was “does not substantially inhibit CYP; also recorded: low potential for reversible inhibition”. For the same compound, the “Total flux (FIG. 47B)” value (GL261-Luc) was “reduced the total flux”, the “Tumor volume (FIG. 47A)” value (GL261-Luc) was “reduced tumor volume” and the tumor growth (4T1 breast cancer; co-administration with docetaxel, paclitaxel, or 5-FU) was “further reduction in tumor growth”. The “activity in subcutaneous 4T1 breast cancer model” value (4T1 breast cancer; single agent) was “single agent activity”, the “Tumor growth (FIG. 29A)” value (MC38 tumor cells; MC38, monotherapy) was “significantly inhibited tumor growth” and the “Intratumoral CD3+ T cells (FIG. 30)” value (MC38 tumor cells; MC38 tumors, vs vehicle) was “significantly more intratumoral CD3+ T cells”. For the same compound, the “Oral exposure (plasma concentrations within 24 hours, FIG. 43)” value [8] was “high”, the “effect of the combination (isobologram)” value (TMD8 cell line) was “synergistic effect” and the “M2 macrophage marker ARG-1” value (M2 macrophage markers) was “reduced”. For the same compound, the “M2 macrophage marker VEGF” value (M2 macrophage markers) was “reduced”, the ED50 ([9]; Rattus norvegicus) was 2.13 mg/kg and the “Mean ankle diameter (FIG. 1)” value ([9]; rat CIA, day 9 to day 17) was “has therapeutic effects”. The “Monocytic iMCs in tumor” value (CT26 colon cancer) was “decreased”.
